Legend:
[1] = molecular target: T1, motilin receptors (Oryctolagus cuniculus, UniProt G1T803); test: Determination of the binding capacity of the test substances to motilin receptors (displacement of 125-iodine-labelled motilin, crude membrane preparation from rabbit antrum); details: tissue homogenate fraction from rabbit antrum; iodinated motilin 50 pM; 30° C., 60 min; read-out: pIC50 value (50% inhibition of the specific binding of the iodinated motilin to the motilin receptors) (converted)
T1 construct: fraction of a tissue homogenate from rabbit antrum; from tissue; host or cells: rabbit antrum, mucosa removed, crude membrane preparation
T1 sequence (G1T803 1-400): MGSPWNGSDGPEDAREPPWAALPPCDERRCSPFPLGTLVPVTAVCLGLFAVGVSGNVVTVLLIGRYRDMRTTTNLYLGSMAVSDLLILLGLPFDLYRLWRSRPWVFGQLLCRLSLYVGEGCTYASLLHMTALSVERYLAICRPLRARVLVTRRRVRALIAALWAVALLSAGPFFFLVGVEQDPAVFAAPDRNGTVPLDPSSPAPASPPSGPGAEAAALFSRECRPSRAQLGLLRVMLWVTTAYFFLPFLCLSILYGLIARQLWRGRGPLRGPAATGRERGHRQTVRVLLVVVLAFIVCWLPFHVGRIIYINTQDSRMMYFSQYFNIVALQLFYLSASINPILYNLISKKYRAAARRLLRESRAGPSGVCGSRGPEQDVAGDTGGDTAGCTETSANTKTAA
Procedure: 1. Determination of the binding capacity of the test substances to motilin receptors.
The affinity of the compounds of Formula I for motilin receptors is measured in vitro on a fraction of a tissue homogenate from rabbit antrum. The displacement of radioactively labelled iodinated motilin from motilin receptor binding by the test substances is determined.
The receptor binding studies are carried out by a modification of the method of Borman et al. (Regulatory Peptides, 15:143-153 (1986). To prepare the ^125 iodine-labelled motilin, motilin is iodinated enzymatically using lactoperoxidase in known manner, for example in analogy to the method described by Bloom et al., Scand. J. Gastroenterol.,11:47-52 (1976). […]
For the binding test, 200 μl of the crude membrane fraction (0.5-1 mg of protein) in 400 μl of a buffer solution A (50 mM tris-HCl buffer, 1.5% BSA, 10 mM MgCl2, pH 8.0) are incubated with 100 μl of iodinated motilin diluted in buffer solution B (10 mM tris-HCl buffer, 1% BSA, pH 8) (final concentration 50 pM) at 30° C. for 60 min. […] The residue obtained as pellet after the centrifugation is washed with buffer solution B and counted in a gamma counter. […] From this the corresponding pIC50 value is calculated.

[2] = system: stomach tone; test: In vivo determination of the effect of the substances on the stomach tone (barostat, stomach volume at constant pressure after lipid intake); details: beagles; maximum tolerable dose; stomach volume measured at constant pressure with barostat
Procedure: 2. In vivo determination of the effect of the substances on the stomach tone.
The stomach tone plays an important role in gastric emptying. An increased stomach tone contributes to an increased rate of gastric emptying.
The influence of substances on the stomach tone is determined on beagles with the aid of a barostat which is connected to a plastic pouch in the stomach of the dog and permits measurement of volume or pressure in the stomach of the dog. With the barostat, the stomach volume is determined at a constant pressure in the stomach or the stomach pressure is determined at a constant volume in the stomach. When the stomach tone increases, a reduced stomach volume is detected at a given pressure, and an increased pressure at a given volume. In the test model used to investigate the increase in stomach tone effected by the substances, the change in stomach volume caused by the substances is measured at constant pressure. The stomach of the test animals is relaxed by intake of lipids, i.e. the stomach tone decreases, which causes the stomach volume to increase correspondingly. The reduction in % of the stomach volume which has been increased by administration of lipids which occurs after intake of the substance due to a re-increase in stomach tone is measured as a measurement of the stomach tone-increasing action of the substances.

IC50 [1]: 14.1 nM
Compound: CC[C@@H](O)[C@@]1(C)O[C@]23O[C@](C)(CC2C)[C@H](O[C@@H]2O[C@H](C)C[C@H](N(C)C(C)C)[C@H]2O)[C@@H](C)[C@H](O[C@H]2C[C@@](C)(OC)[C@@H](O)[C@H](C)O2)[C@@H](C)C(=O)O[C@@H]1[C@H]3C (stereo partly drawn) [Example 1, [(1'R),2R,3S,4S,5R,6R,9R,11R,12R,14R]-11-(1'-hydroxypropyl)-3-[(2,6-dideoxy-3-C-methyl-3-0-methyl-α-L-ribohexopyranosyl)-oxy]-5-[(3,4,6-trideoxy-3-(N-methyl-N-isopropylamino)-β-D-xylo-hexopyranosyl)-oxy]-2,4,6,8,11,14-hexamethyl-10,13,15-trioxatricyclo[9.2.1.1^9.6]-pentadecan-1-one]
reduction in the stomach volume increased after lipid administration [2]: 69%
